Assay results reported in PubChem BioAssay AID328 (DTP/NCI, 2004).
“And” between values parts separate entries of the source, which are not always exact repeats. Identical values can stand only once. Toxic doses and inconclusive results are not listed.

System: BDF1 mice, P388 leukemia ip, median survival T/C
Test: NCI In Vivo Anticancer Drug Screen. Data for tumor model P388 Leukemia (intraperitoneal) in B6D2F1 (BDF1) mice
Conditions: endpoint: median survival time, higher = longer survival
Outline: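 Transplantable tumour in mice; compound vs vehicle dosing; survival scored; ratio of treated to control reported.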

[1] = dose: 50.0 mg/kg/injection, schedule: Q01DX009 (ip), vehicle: saline with Tween-80
[2] = dose: 100.0 mg/kg/injection, schedule: Q01DX009 (ip), vehicle: saline with Tween-80
[3] = dose: 100.0 mg/kg/injection, schedule: Q04DX003 (ip), vehicle: Klucel (hydroxypropylcellulose) (HPC)
[4] = dose: 200.0 mg/kg/injection, schedule: Q04DX003 (ip), vehicle: Klucel (hydroxypropylcellulose) (HPC)

Compound: [O-][n+]1onc2ccc(Cl)cc21
- T/C (dose: 12.5 mg/kg/injection, schedule: Q01DX009 (ip), vehicle: Klucel (hydroxypropylcellulose) (HPC)): 100 % of control
- T/C (dose: 25.0 mg/kg/injection, schedule: Q01DX009 (ip), vehicle: Klucel (hydroxypropylcellulose) (HPC)): 100 % of control
- T/C (dose: 37.5 mg/kg/injection, schedule: Q04DX003 (ip), vehicle: Klucel (hydroxypropylcellulose) (HPC)): 95 % of control
- T/C (dose: 50.0 mg/kg/injection, schedule: Q01DX009 (ip), vehicle: Klucel (hydroxypropylcellulose) (HPC)): 95 % of control
- T/C (dose: 75.0 mg/kg/injection, schedule: Q04DX003 (ip), vehicle: Klucel (hydroxypropylcellulose) (HPC)): 117 % of control
- T/C (dose: 150.0 mg/kg/injection, schedule: Q04DX003 (ip), vehicle: Klucel (hydroxypropylcellulose) (HPC)): 86 % of control

Compound: NC(=S)N/N=C/c1cc(-c2cccc(N)c2)ccn1
- T/C (dose: 12.5 mg/kg/injection, schedule: Q01DX009 (ip), vehicle: saline with Tween-80): 154 % of control
- T/C (dose: 25.0 mg/kg/injection, schedule: Q01DX009 (ip), vehicle: saline with Tween-80): 162 % of control
- T/C [1]: 211 % of control
- T/C (dose: 75.0 mg/kg/injection, schedule: Q01DX009 (ip), vehicle: saline with Tween-80): 178 % of control

Compound: CCOC(=O)c1cccc(OP(=O)(N(C)C)N(C)C)c1
- T/C [1]: 108 % of control
- T/C [2]: 116 % of control

Compound: CC(=O)OC(=O)C(Cc1ccccc1)NC(=O)C(N)CCCN=C(N)N (stereo unspecified)
- T/C (dose: 50.0 mg/kg/injection, schedule: Q01DX005 (ip), vehicle: saline with Tween-80): 98 % of control
- T/C (dose: 100.0 mg/kg/injection, schedule: Q01DX005 (ip), vehicle: saline with Tween-80): 103 % of control

Compound: CCC(c1ccc2cc(OC)ccc2c1)C(CC(=O)O)C(=O)OC (stereo unspecified)
- T/C [3]: 87 % of control
- T/C [4]: 91 % of control
- T/C (dose: 400.0 mg/kg/injection, schedule: Q04DX003 (ip), vehicle: Klucel (hydroxypropylcellulose) (HPC)): 91 % of control

Compound: O=C(Nc1ccc(NC(=O)c2ccc(C3=NCCCN3)cc2)cc1)c1ccc(C2=NCCCN2)cc1
- T/C (dose: 33.0 mg/kg/injection, schedule: Q04DX003 (ip), vehicle: saline with Tween-80): 159 % of control
- T/C (dose: 50.0 mg/kg/injection, schedule: Q04DX003 (ip), vehicle: saline with Tween-80): 153 % of control and 181 % of control
- T/C (dose: 75.0 mg/kg/injection, schedule: Q04DX003 (ip), vehicle: saline with Tween-80): 168 % of control and 207 % of control

Compound: O=NN1CCNC1=O
- T/C (dose: 7.2 mg/kg/injection, schedule: Q04DX003 (ip), vehicle: saline): 172 % of control
- T/C (dose: 10.0 mg/kg/injection, schedule: Q04DX003 (ip), vehicle: saline): 113 % of control
- T/C (dose: 16.5 mg/kg/injection, schedule: Q04DX003 (ip), vehicle: saline): 209 % of control
- T/C (dose: 25.0 mg/kg/injection, schedule: Q04DX003 (ip), vehicle: saline): 86 % of control
- T/C (dose: 37.5 mg/kg/injection, schedule: Q04DX003 (ip), vehicle: saline): 90 % of control

Compound: CN(C)c1ccc2cc3ccc(N(C)C)cc3nc2c1
- T/C (dose: 3.12 mg/kg/injection, schedule: Q04DX003 (ip), vehicle: water): 93 % of control
- T/C (dose: 6.25 mg/kg/injection, schedule: Q04DX003 (ip), vehicle: water): 106 % of control
- T/C (dose: 12.5 mg/kg/injection, schedule: Q04DX003 (ip), vehicle: water): 99 % of control
- T/C (dose: 25.0 mg/kg/injection, schedule: Q04DX003 (ip), vehicle: water): 109 % of control
- T/C (dose: 50.0 mg/kg/injection, schedule: Q04DX003 (ip), vehicle: water): 115 % of control

Compound: CS(=O)/C=C(\c1ccccc1)c1cccs1 (stereo unspecified)
- T/C [1]: 96 % of control
- T/C [2]: 100 % of control

Compound: O=C(O)CCC(=O)c1cccc2ccccc12
- T/C (dose: 50.0 mg/kg/injection, schedule: Q01DX001 (ip), vehicle: other): 100 % of control
- T/C (dose: 50.0 mg/kg/injection, schedule: Q04DX003 (ip), vehicle: Klucel (hydroxypropylcellulose) (HPC)): 104 % of control
- T/C (dose: 100.0 mg/kg/injection, schedule: Q01DX001 (ip), vehicle: other): 90 % of control
- T/C [3]: 100 % of control
- T/C (dose: 200.0 mg/kg/injection, schedule: Q01DX001 (ip), vehicle: other): 100 % of control
- T/C [4]: 113 % of control

Compound: O=C(c1ccccc1Cl)n1c(Cl)c(/C=N\Nc2cccc([N+](=O)[O-])c2)c2ccccc21
- T/C (dose: 100.0 mg/kg/injection, schedule: Q04DX002 (ip), vehicle: Klucel (hydroxypropylcellulose) (HPC)): 90 % of control
- T/C (dose: 200.0 mg/kg/injection, schedule: Q04DX002 (ip), vehicle: Klucel (hydroxypropylcellulose) (HPC)): 89 % of control
- T/C (dose: 400.0 mg/kg/injection, schedule: Q04DX002 (ip), vehicle: Klucel (hydroxypropylcellulose) (HPC)): 90 % of control

Compound: Cc1nc2nc(N)nc(N)c2nc1C
- T/C [1]: 100 % of control
- T/C [2]: 104 % of control
- T/C (dose: 100.0 mg/kg/injection, schedule: Q04DX003 (ip), vehicle: saline with Tween-80): 95 % of control
- T/C (dose: 200.0 mg/kg/injection, schedule: Q01DX009 (ip), vehicle: saline with Tween-80): 100 % of control
- T/C (dose: 200.0 mg/kg/injection, schedule: Q04DX003 (ip), vehicle: saline with Tween-80): 95 % of control
